The values that follow come from paper PMC10484922, “Discovery of a selective and biologically active low-molecular weight antagonist of human interleukin-1β” (Nature Communications, 2023).

One test deals with T1, IL-1α (Homo sapiens, UniProt P01583).
T1 sequence (P01583 113-271): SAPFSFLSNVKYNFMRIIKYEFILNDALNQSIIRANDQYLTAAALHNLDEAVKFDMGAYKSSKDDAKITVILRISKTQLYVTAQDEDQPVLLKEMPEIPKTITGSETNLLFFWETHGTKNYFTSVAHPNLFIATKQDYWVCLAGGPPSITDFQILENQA
Put plainly: TR-FRET IL-1α/hIL-1R1 receptor displacement assay. It counts as biochemical. Particulars: read-out: TR-FRET IL-1α IC50. Here is the method: After 1 h incubation at room temperature, hIL-1R1 (1–332; Alexa 647 labeled; 50 nM final concentration) and anti-His-Europium W1024 (Perkin Elmer; Cat.No. AD0401, 1 nM final concentration) were added to a final volume of 10 μl per well. After 1 h of incubation at room temperature, time-resolved fluorescence was measured at λexc = 320 ± 20 nm, λem = 620 ± 25 nm/665 ± 25 nm using a Pherastar FSX plate reader. All experiments were run in triplicates. The data provided a typical saturation-binding curve, and the IC50 values were calculated by fitting the results to the Hill equation using Prism 7.0 and the in-house software Helios.
(In general: TR-FRET usually uses a lanthanide donor and a delayed reading to cut background.)

The target of the next test is IL-1β (Homo sapiens, UniProt P01584). Put plainly: protein-observed 1H-13C-HMQC NMR binding (I/Io of Leu60 Cδ1H3). Also noted: Mature hIL-1β was expressed in Escherichia coli; made in house; host or cells: Escherichia coli BL21 (DE3), pET17b. On the procedure:
^1H–^13C- and ^1H–^15N-HMQC spectra were recorded on Bruker AVANCE 600 MHz and 800 MHz spectrometers equipped with TXI-cryocooled probeheads. In ligand binding experiments, protein concentrations were typically 50 μM in PBS, pH 7.4. Backbone assignments of hIL-1β in the ligand-bound state and unliganded state were obtained by a combination of a 3D triple resonance experiment HNCACB and a ^15N-edited NOESY spectrum, which were processed using TOPSPIN 3.2 and analyzed using CcpNmr AnalysisAssign 3.1.0[46]. ^15N-CEST experiments were run at weak B1 radiofrequency fields of 25 and 12.5 Hz on a Bruker AVANCE 800 MHz spectrometer with 113 increments and a total sweep width of 28 ppm in the pseudo-3D dimension. Peak intensities were extracted by fitting pseudo-Voigt lineshape models using peakipy (https://github.com/j-brady/peakipy). Fitted peak intensities were subsequently used to generate CEST profiles, and exchange parameters were fitted using ChemEx (https://github.com/gbouvignies/ChemEx).
Supplementary Figure 2. 13C-NMR and 19F-NMR reporter assays to monitor early
13C-HMQC spectra of hIL-1b (50 µM) were acquired in the presence (red) and absence (blue) of 500
µM compound and rows were extracted at the w1-frequency of the peak corresponding to Leu60 […]

For test [1], the system named is normal human dermal fibroblasts stimulated with hIL-1β. Put plainly: Human fibroblast IL-6 release assay, hIL-1β stimulated. Particulars: for Mean OD (OD 450nm) / IL-1beta (mean, SD): mean readout (IL-6 release): Figure 3c; for Mean OD (OD 450nm): compound 1 nM; for IL-1beta (mean, SD): mean readout (IL-6 release): compound @ 1nM. Also noted: IL-6, average / inhibition, replicates of EXP1, EXP2, EXP3 / inhibition, Mean / IL-1beta (mean, SD): mean readout (IL-6 release): unit not given here. Format: cell-based. On the procedure:
(§1) We used HEK-Blue™ IL-1β cells that respond specifically to IL-1 (# hkb-il1b, InvivoGen). These cells can detect IL-1α and IL-1β, as these cytokines bind to the same receptor, IL-1R1. They express a Seap reporter gene under the control of the IFN-β minimal promoter fused to five NF-kappaB and five AP-1 binding sites. Thirty microliters (300,000 cells/ml) per well of a 384-well plate were plated overnight. Cells were then stimulated with graded concentrations of cytokines (hIL-1α or hIL-1β) in the absence or presence of canakinumab (Ilaris®, ILARI LYVI 150MG 22GLW.012, batch U003 0409)[22], anakinra (Kineret®, 100 mg/0.67 ml injectable solution, Sobi)[23], or compound (S)-2 (compounds were pre-mixed for 1 h with the cytokine prior to addition to cells) and further incubated overnight before assessment of Seap activity.
(§2) Normal human dermal fibroblasts (NHDF) from Clonetics^TM (LONZA, Cat # CC-2509 (NHDF-Neo), Lot # 0000234242, used at passage ≤14) were seeded at a density of 5000 cells/well in 100 μL of culture medium using 96-well plates (flat bottom, TCT). Treatment with cytokines/compounds was performed as described above. Cells were incubated for another 6 h and were subsequently spun down (320g/3 min). IL-6 was measured in the supernatant by ELISA (BioLegend, # 430503) or HTRF (Cisbio, #62HIL06PEH).

In test [2] the test system is HEK-Blue IL-1β cells stimulated with hIL-1α. Put plainly: HEK293 reporter gene assay, hIL-1α as trigger. Format: cell-based, human. Particulars: inhibitor 3nM. On the procedure:
as §1
Background: Reporter assays use an easily measured gene product as a stand-in for the process of interest.

In test [3] the test system is normal human dermal fibroblasts stimulated with hIL-1α. The test can be described thus: Human fibroblast IL-6 release assay, hIL-1α stimulated. It counts as cell-based. Also noted: IL-1alpha (mean, SD): mean readout (IL-6 release): unit not given here. Particulars: for Mean OD (OD 450nm) / IL-1alpha (mean, SD): mean readout (IL-6 release): Figure 3c; for Mean OD (OD 450nm): compound 1 nM; for IL-1alpha (mean, SD): mean readout (IL-6 release): compound @ 1nM. On the procedure:
as §1, §2

For test [4], the system named is HEK-Blue IL-1β cells stimulated with hIL-1β. The test can be described thus: HEK293 reporter gene assay, hIL-1β as trigger. Particulars: inhibitor 3nM. Format: cell-based, human. Here is the method:
as §1

As usually defined, the IC50 is the concentration that gives 50% inhibition.

Where “and” joins values, the source holds several entries; their conditions need not be identical. Equal entries are not always repeated. Bounds are passed on as bounds.

Chain of IL-1β (P01584 117-269): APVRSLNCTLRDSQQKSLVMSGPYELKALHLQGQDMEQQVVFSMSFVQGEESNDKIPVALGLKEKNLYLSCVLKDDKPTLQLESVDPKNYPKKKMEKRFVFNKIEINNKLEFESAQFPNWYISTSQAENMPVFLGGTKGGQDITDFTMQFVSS

Take `O=C1Nc2cc(C(F)(F)F)ccc2C1(O)c1cc(Cl)ccc1O` (stereo not shown) [Compound 1]: the IC50 on IL-1α was above 200 µM. In addition, the “binding to hIL-1β by protein-observed NMR” value on IL-1β was “validated as a binder by 2D NMR”. In addition, the “NMR I/Io values, individual experiments (Exp1-2)” value on IL-1β (source data) was 0.39 and 0.31.
Take `O=C1Nc2cc(C(F)(F)F)ccc2[C@@]1(O)c1cc(Cl)ccc1O` [Compound (R)-1]: the “binding to hIL-1β by protein-observed NMR” value on IL-1β is recorded as “only enantiomer (S)-1 showed binding to the protein”.
As for `O=C1Nc2cc(C(F)(F)F)ccc2[C@]1(O)c1cc(Cl)ccc1O` [Compound (S)-1], on IL-1α, the IC50 was above 200 µM.
With “anakinra: IL-1R1 antagonist [reference compound]”, the “block of hIL-1β driven IL-6 release” value in test [1] is listed as “could block the release of IL-6”. Moreover, the “Mean OD (OD 450nm)” value in test [1] (hu IL-1b 0 pg/mL) is 0.034; in test [1] (hu IL-1b 40 pg/mL), 0.047; in test [1] (hu IL-1b 80 pg/mL), 0.079; in test [1] (hu IL-1b 120 pg/mL), 0.102; in test [1] (hu IL-1b 160 pg/mL), 0.157; in test [1] (hu IL-1b 200 pg/mL) it was 0.162. The “Mean OD (OD 450nm)” value in test [3] (hu IL-1A 0 pg/mL) was 0.042; in test [3] (hu IL-1A 40 pg/mL), 0.05; in test [3] (hu IL-1A 80 pg/mL) it was 0.061; in test [3] (hu IL-1A 120 pg/mL), 0.067; in test [3] (hu IL-1A 160 pg/mL), 0.073; in test [3] (hu IL-1A 200 pg/mL), 0.103. In addition, the “IL-1beta (mean, SD): mean readout (IL-6 release)” value in test [1] (hu IL-1b 0 pg/mL) was 0; in test [1] (hu IL-1b 40 pg/mL), 0; in test [1] (hu IL-1b 80 pg/mL) it was 0; in test [1] (hu IL-1b 120 pg/mL), 0; in test [1] (hu IL-1b 160 pg/mL), 404.5; in test [1] (hu IL-1b 200 pg/mL), 439.1. Also, the “reporter gene assay signal, mean (Figure 3d)” value (“reporter gene assay signal” below) in test [2] (IL-1alpha 3.04596 pg/ml), in test [2] (IL-1alpha 6.09192 pg/ml), in test [2] (IL-1alpha 12.1838 pg/ml), in test [2] (IL-1alpha 24.3677 pg/ml), in test [2] (IL-1alpha 48.7353 pg/ml) and in test [2] (IL-1alpha 97.4707 pg/ml) was 0.06 throughout. In addition, the “reporter gene assay signal” value in test [2] (IL-1alpha 194.941 pg/ml) was determined as 0.07; in test [2] (IL-1alpha 389.883 pg/ml), 0.08; in test [2] (IL-1alpha 779.766 pg/ml), 0.09; in test [2] (IL-1alpha 1559.53 pg/ml), 0.15; in test [2] (IL-1alpha 3119.06 pg/ml), 0.24; in test [2] (IL-1alpha 6238.12 pg/ml) it was 0.46. In addition, the “reporter gene assay signal” value in test [2] (IL-1alpha 12476.2 pg/ml) turned out to be 0.84; in test [2] (IL-1alpha 24952.5 pg/ml) it was 1.11; in test [2] (IL-1alpha 49905 pg/ml), 1.47; in test [4] (IL-1beta 3.04596 pg/ml) it was 0.06; in test [4] (IL-1beta 6.09192 pg/ml), 0.06; in test [4] (IL-1beta 12.1838 pg/ml), 0.06. In addition, the “reporter gene assay signal” value in test [4] (IL-1beta 24.3677 pg/ml) was 0.06; in test [4] (IL-1beta 48.7353 pg/ml), 0.06; in test [4] (IL-1beta 97.4707 pg/ml), 0.07; in test [4] (IL-1beta 194.941 pg/ml) it was 0.08; in test [4] (IL-1beta 389.883 pg/ml), 0.09; in test [4] (IL-1beta 779.766 pg/ml), 0.17. For the same molecule, the “reporter gene assay signal” value in test [4] (IL-1beta 1559.53 pg/ml) is listed as 0.37; in test [4] (IL-1beta 3119.06 pg/ml), 0.68; in test [4] (IL-1beta 6238.12 pg/ml), 1.15; in test [4] (IL-1beta 12476.2 pg/ml) it was 1.43; in test [4] (IL-1beta 24952.5 pg/ml) it was 1.66; in test [4] (IL-1beta 49905 pg/ml) it was 1.81. Further, in test [3], the “effect on hIL-1α driven IL-6 release” value is on record as “could block the release of IL-6”. For the same molecule, the “IL-1alpha (mean, SD): mean readout (IL-6 release)” value in test [3] (hu IL-1a 0 pg/mL) turned out to be 0; in test [3] (hu IL-1a 40 pg/mL) it was 0; in test [3] (hu IL-1a 80 pg/mL) it was 0; in test [3] (hu IL-1a 120 pg/mL) it was 0; in test [3] (hu IL-1a 160 pg/mL) it was 0; in test [3] (hu IL-1a 200 pg/mL) it was 3.7.
